# According to PMC10003360, “Antiviral Effect of Ginsenosides rk1 against Influenza a Virus Infection by Targeting the Hemagglutinin 1-Mediated Virus Attachment” (International Journal of Molecular Sciences, 2023):
# Molecular target: T1, HA1 (Influenza A virus (A/Puerto Rico/8/1934(H1N1)), UniProt P03452)
# T1 construct: gene HA; HA1 subunit alone, cut from precursor HA0; purchased from Sino Biological; immobilised on sensor chip
# Assay: biochemical
# Assay type: binding
# T1 sequence (P03452 18-342 limits assumed): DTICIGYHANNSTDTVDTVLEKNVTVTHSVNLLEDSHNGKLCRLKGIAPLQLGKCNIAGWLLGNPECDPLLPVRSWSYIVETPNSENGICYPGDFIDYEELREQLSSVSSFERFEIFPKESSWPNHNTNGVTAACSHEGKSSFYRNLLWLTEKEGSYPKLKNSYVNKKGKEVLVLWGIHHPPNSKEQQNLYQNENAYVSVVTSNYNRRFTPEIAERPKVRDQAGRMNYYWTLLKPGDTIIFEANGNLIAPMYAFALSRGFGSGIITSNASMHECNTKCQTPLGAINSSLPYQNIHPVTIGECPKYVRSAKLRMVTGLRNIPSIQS
compound,measurement,value
"C=C(CCC=C(C)C)[C@H]1CC[C@]2(C)[C@@H]1[C@H](O)C[C@@H]1[C@@]3(C)CC[C@H](O[C@@H]4O[C@H](CO)[C@@H](O)[C@H](O)[C@H]4O[C@@H]4O[C@H](CO)[C@@H](O)[C@H](O)[C@H]4O)C(C)(C)[C@@H]3CC[C@]12C [G-rk1, ginsenoside rk1]",Kd,93.3 nM
